This is an account of results in article PMC6028453, “BrlR from Pseudomonas aeruginosa is a receptor for both cyclic di-GMP and pyocyanin” (Nature Communications, 2018).

SMILES strings stand for the structures.

For one assay, the target named is T1, BrlR-C (Pseudomonas aeruginosa, UniProt Q9HUT5).
T1 construct: His6 (cleaved yes); made in house; host or cells: E. coli (same protocol as BrlR, induction at 18 °C)
The assay can be described thus: FP competition experiment, BrlR-C. The assay is classed as binding. As to conditions: 550 μM BrlR-C, 1 nM F-c-di-GMP. The procedure: Supplementary Figure 11: FP analyses of F-c-di-GMP binding to BrlR-C. (a) Isotherms of BrlR-C binding to F-c-di-GMP. The binding experiment was carried out at 25 °C in a buffer containing 150 mM NaCl, 25 mM Tris·HCl (pH 7.5), and 1 nM F-c-di-GMP. Increasing concentrations of BrlR-C were titrated into the reaction mixture to obtain the binding isotherms. (b) Fluorescence polarization competition experiment of BrlR-C. As a control, 550 μM BrlR-C was added to the reaction tube containing 1 nM F-c-di-GMP, and different competitors were respectively added in the solution and the values of millipolarization were recorded.
(1 picture or pasted object on this page, not shown here)

The target of the next assay is T2, C2E mut2 DNA binding (Pseudomonas aeruginosa, UniProt Q9HUT5, R67A/R86A).
T2 construct: His6-SUMO (N, cleaved yes); made in house; host or cells: E. coli BL21 DE3
The assay can be described thus: EMSA, C2E mut2 with PbrlR DNA. The assay is classed as biochemical. How it is done:
(§1) A 6-carboxy-fluorescein (FAM)-labeled 36-bp brlR promoter DNA (PbrlR) or 80-bp mexA/mexE promoter DNA (PmexA/PmexE) probes (~0.375 pmol), BrlR protein and varying amounts of inducers were incubated in binding buffer (10 mM Tris HCl [pH 7.4], 50 mM KCl, 1 mM DTT, […] and 5 ng/mL poly [dI-dC]) for 60 min at 25 °C. Finally, glycerol was added to a concentration of 6.5%. The samples were subjected to a 5% polyacrylamide gel electrophoresis and run in 0.5 × Tris-borate-EDTA buffer at 80 V for 1 h at room temperature. Imaging and data analyses were performed using a Typhoon Scanner (GE Healthcare) and Imagequant software. The probes used are listed in Supplementary Table 1.

Assay [1] concerns the target T3, C2E mut3 (R31A/D35A/Y40A/R67A/R86A/Y270A) DNA binding (Pseudomonas aeruginosa, UniProt Q9HUT5, D35A/R31A/R67A/R86A/Y270A/Y40A).
T3 construct: His6-SUMO (N, cleaved yes); made in house; host or cells: E. coli BL21 DE3
Briefly: EMSA, C2E mut3. It is filed as biochemical. The procedure:
as §1
A general note: In EMSA bound probe runs differently from free probe, usually more slowly.

A further assay addresses T4, BrlR R31A DNA binding (Pseudomonas aeruginosa, UniProt Q9HUT5, R31A).
T4 construct: His6-SUMO (N, cleaved yes); made in house; host or cells: E. coli BL21 DE3
Briefly: EMSA, BrlR R31A. It is filed as biochemical. The procedure: as §1

Assay [2] relates to brlR promoter activity (wild-type BrlR). Briefly: β-galactosidase assay, PbrlR-brlR-lacZ reporter, wild-type BrlR. It is filed as cell-based, Pseudomonas aeruginosa. Particulars: ΔbrlR strain, pHERD20T-PA4843 vs pHERD20T. The procedure:
(§2) We also performed β-galactosidase activity assays using a PbrlR-brlR-lacZ reporter construct to investigate the transcriptional function of BrlR mutants in vivo. […] To confirm the effect of c-di-GMP in P. aeruginosa, we carried out real-time quantitative PCR analyses. Following a previous report, we introduced the diguanylate cyclase PA4843 into a WT P. aeruginosa strain carrying either pHERD20T-empty or pHERD20T-PA4843. The transcription level of brlR was analyzed using the brlR 5 F and brlR 3 R primers (Supplementary Table 1). The transcriptional level of brlR in pHERD20T-PA4843 strain is 4.5 ± 1.3-fold higher than that in the pHERD20T-empty strain (Fig. 4h).
(§3) β-galactosidase activity was assayed with P. aeruginosa PA01 ΔbrlR strain carrying plasmid pME6522-borne transcriptional lacZ fusions. P. aeruginosa carrying the empty vector was used as the […]. The reporter plasmids are derivatives of the pME6522 plasmid in which multiple cloning sites were inserted before the LacZ with the promoter and coding regions of brlR with diverse mutations. These reporter plasmids were transformed into the reporter strain. Overnight cultures were diluted 20-fold with LB medium supplemented with appropriate antibiotics. […]

Assay [3] relates to brlR promoter activity (C2E mut3). The assay can be described thus: β-galactosidase assay, C2E mut3. The assay is classed as cell-based, Pseudomonas aeruginosa. The procedure:
as §2, §3

Another assay deals with brlR transcription. Briefly: qRT-PCR of brlR transcript. The assay is classed as cell-based, P. aeruginosa PAO1. As to conditions: elevated c-di-GMP by diguanylate cyclase PA4843 in PAO1. How it is done: PAO1 WT strains were grown under different conditions. For c-di-GMP effects, overexpression of PA4843 in PAO1 (PAO1/pHERD20T-PA4843) relative to WT cells (PAO1/ pHERD20T) was determined. When P. aeruginosa strains entered mid-log phase, arabinose was added to induce gene expression. To test pyocyanin’s effect, a P. aeruginosa PAO1 WT strain cells with high pyocyanin production was determined relative to a ΔphzA1-G1/phzA2-G2 strain not producing phenazine and a ΔphzMSH strain not producing pyocyanin.
Total RNA was extracted using a MiniBEST Universal RNA Extraction Kit (TaKaRa) and cDNA synthesis was performed using a PrimeScript RT reagent Kit (TaKaRa). Primers for RT-PCR listed in Supplementary Table 1 were designed using the program PrimerExpress (Applied Biosystems). The RT-PCR reactions were performed on a CFX96 Real-Time PCR Detection System (Bio-Rad) using SYBR Premix Ex Taq™ (TaKaRa). Expression of the target genes was normalized to the expression of 16 S RNA. The relative transcript abundance was calculated according to the 2^−ΔΔCt method. Five biological replicates were performed per sample. The data were analyzed with a one-tailed t-test (***P ≤ 0.001).

T1 sequence (Q9HUT5 120-270): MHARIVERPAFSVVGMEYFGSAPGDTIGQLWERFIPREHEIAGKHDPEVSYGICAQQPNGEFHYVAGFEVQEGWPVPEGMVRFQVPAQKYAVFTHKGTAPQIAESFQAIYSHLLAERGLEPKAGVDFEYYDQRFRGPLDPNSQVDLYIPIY
T2 sequence (Q9HUT5 whole entry R67A/R86A): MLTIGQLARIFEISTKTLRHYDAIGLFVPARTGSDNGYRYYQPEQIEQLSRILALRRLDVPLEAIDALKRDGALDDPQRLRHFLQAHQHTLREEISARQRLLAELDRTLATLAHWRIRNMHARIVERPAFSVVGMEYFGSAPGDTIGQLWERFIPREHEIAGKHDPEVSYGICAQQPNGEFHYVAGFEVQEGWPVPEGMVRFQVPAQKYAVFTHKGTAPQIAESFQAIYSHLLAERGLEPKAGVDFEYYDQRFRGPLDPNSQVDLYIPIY
T4 sequence (Q9HUT5 whole entry R31A): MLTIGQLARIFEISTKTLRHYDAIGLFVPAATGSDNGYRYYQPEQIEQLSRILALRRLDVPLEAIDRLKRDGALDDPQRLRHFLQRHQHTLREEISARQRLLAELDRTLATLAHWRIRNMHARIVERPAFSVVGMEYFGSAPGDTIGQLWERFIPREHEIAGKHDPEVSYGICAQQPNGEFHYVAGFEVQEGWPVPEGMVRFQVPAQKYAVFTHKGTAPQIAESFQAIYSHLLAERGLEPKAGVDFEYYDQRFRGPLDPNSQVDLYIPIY
T3 sequence (Q9HUT5 whole entry R31A/D35A/Y40A/R67A/R86A/Y270A): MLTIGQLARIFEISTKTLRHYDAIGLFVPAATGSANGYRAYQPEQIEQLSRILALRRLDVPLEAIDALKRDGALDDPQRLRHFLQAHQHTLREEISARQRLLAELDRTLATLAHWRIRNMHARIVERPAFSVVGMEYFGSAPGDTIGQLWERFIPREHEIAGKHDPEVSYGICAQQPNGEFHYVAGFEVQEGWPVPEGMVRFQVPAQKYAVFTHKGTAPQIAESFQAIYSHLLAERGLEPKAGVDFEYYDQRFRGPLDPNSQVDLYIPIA

Turning to `Nc1nc2c(ncn2[C@@H]2O[C@@H]3COP(=O)(O)O[C@H]4[C@@H](O)[C@H](n5cnc6c(=O)[nH]c(N)nc65)O[C@@H]4COP(=O)(O)O[C@H]3[C@H]2O)c(=O)[nH]1` [c-di-GMP, cyclic diguanylate monophosphate], on BrlR-C, the “competition with F-c-di-GMP binding to BrlR-C” value is listed as “not”. For the same molecule, the “BrlR-DNA complex in the presence vs absence of c-di-GMP” value at C2E mut2 DNA binding is listed as 1.9 fold. Besides, in assay [1], the “effect of c-di-GMP on DNA binding” value was “did not have any effect”. The “DNA bound in the presence vs absence of c-di-GMP” value on BrlR R31A DNA binding was ~ 1.3 fold. Besides, the “increase at high vs low c-di-GMP concentration (β-galactosidase activity)” value in assay [2] turned out to be 3.3 fold. Further, the “response of β-galactosidase activity to increase in c-di-GMP concentration” value in assay [3] is “no response”. For the same molecule, in the assay on brlR transcription, the “transcriptional level of brlR, pHERD20T-PA4843 strain vs pHERD20T-empty strain” value was 4.5 ± 1.3 fold.
